Laboratory results as given in patent US20240399118A1, “INTRALUMINAL LOCAL DRUG DELIVERY” (Isola Therapeutics, Inc., priority 2023, published 2024).
Like-named read-outs stand apart in the source and are kept apart here. Blank lines part the entries; values can stand above or below the compound they belong to.

Experiments:
[1] = cited from earlier work
porcine model = conditions: pig, in vivo
Procedure: Animals tested were of the porcine species from the breed Yorkshire Cross. The animals underwent surgery to place two (2) CVL catheters, 1 for infusion and 1 for plasma collection. Each animal received ˜1 L of lavage solution. The animals were allowed to recover and stabilize. Once the animals were awake and mobile, the animals were infused with 50 mcg/mL for 30 minutes.

[2] = Plasma concentration of diclofenac after local lavage delivery to the lungs in a porcine model (LC/MS); type: in vivo, porcine (Yorkshire Cross)
Source text: Each animal received ˜1 L of lavage solution. The animals were allowed to recover and stabilize. […] Spectra were compared to the validated protocol and standard curve generated for the study.

Compound: O=C(O)Cc1ccccc1Nc1c(Cl)cccc1Cl [Diclofenac sodium]
solubility in water (in words) ([1]; water at 25° C.): sparingly soluble

Compound: C[C@@H]1C[C@H]2[C@@H]3CCC4=CC(=O)C=C[C@]4(C)[C@@]3(F)[C@@H](O)C[C@]2(C)[C@@]1(O)C(=O)COP(=O)([O-])[O-].[Na+].[Na+] [Dexamethasone sodium phosphate, disodium; [2-[(8S,9R,10S,11S,13S,14S,16R, 17R)-9-fluoro-11,17-dihydroxy-10,13,16-trimethyl-3-oxo-6,7,8, 11, 12, 14, 15, 16-octahydrocyclopenta[a]phenanthren-17-yl]-2-oxoethyl] phosphate]
solubility in water ([1]; water): 100 to 1000 mg/mL | solubility in water (in words) ([1]; water): freely soluble | tolerability (porcine model): well tolerated

time of peak plasma concentration post-lung infusion ([2]; local lung delivery at 50 mcg/mL): 5 min | plasma Cmax as percent of the plasma Cmax resulting from systemic administration ([2]; local vs systemic administration): less than 0.05% | Plasma Concentration (ng/mL) by Time (min): 5 min ([2]; swine, local lung administration 50 mcg/mL, 5 min, animal 24P0133): 3430 ng/mL | Plasma Concentration (ng/mL) by Time (min): 15 min ([2]; swine, local lung administration 50 mcg/mL, 15 min, animal 24P0133): 3050 ng/mL | Plasma Concentration (ng/mL) by Time (min): 30 min ([2]; swine, local lung administration 50 mcg/mL, 30 min, animal 24P0133): 2410 ng/mL | Plasma Concentration (ng/mL) by Time (min): 0 min ([2]; swine, local lung administration 50 mcg/mL, ~1 L lavage solution, 0 min (baseline), animal 24P0133): BLQ | clinical observations (porcine model): no abnormal clinical observations
Compound: O=C(O)Cc1ccccc1Nc1c(Cl)cccc1Cl [Diclofenac, 2-[2-(2,6-dichloroanilino)phenyl]acetic acid]
adverse events (porcine model): did not have any adverse events | lung tissue damage (porcine model): no signs of lung tissue damage
